Measurements from US20150284362A1, “CARBAZOLE-CONTAINING AMIDES, CARBAMATES, AND UREAS AS CRYPTOCHROME MODULATORS” (ReSet Therapeutics, Inc., priority 2014, published 2015).

Key:
[1] = system: core clock gene mRNAs in liver; assay: Four day study, liver core clock gene mRNA, ICR mice; type: in vivo, mouse; details: 50 mg/kg PO BID 4 days, ZT6
Experimental: Male ICR mice (weighing 30-35 g), obtained from Charles River Laboratories (Hollister, Calif.), were used for the experiment following at least 3 days of acclimation. Mice were dosed with vehicle (WFI or 10% Kolliphor) or compound (50 mg/kg, dose volume 5 mL/kg, PO) for 4 days BID (twice a day), beginning in the afternoon of the first day. The last dose of compound or vehicle was administered on the morning of harvest. On the day of harvest (6 hours following the final dose), mice were euthanized by CO2 asphyxiation and 50 mg of liver tissue was excised and placed in a tube containing 500 μl of RNA later.
E.Z.N.A.® HP Total RNA Isolation Kits (R6812-01 and the protocol described in the Manual, Revised 2010) were utilized to prepare and isolate RNA from the liver samples. To prepare the RNA samples, 10-30 mg of sample was removed from RNA-Later and placed in a 1.5 ml microfuge tube. […] The cleared supernatant was transferred by pipetting to a DNA Clearance Column Pre-inserted in a 2 mL Collection Tube. The assembled column was centrifuged at 13,000×g for 1 minute, and the flow-through was saved. An equal volume (700 μl) of 70% ethanol was added to the lysate and mixed. The sample was then applied to a HiBind RNA spin column placed into a 2 ml collection tube, which was centrifuged at 10,000×g for 60 seconds at room temperature. RNA Wash Buffer I (250 μl) was added by pipetting directly onto a new HiBind RNA column inserted in a 2 ml collection tube. The assembled column was centrifuged at 10,000×g for 60 seconds. The RNA column was placed into a new 2 ml collection tube. […] The column with bound RNA was incubated at room temperature (25-30° C.) for 15 minutes. RNA Wash Buffer I (500 μl) was added to the column and placed on a bench top for 2 minutes. After centrifuging at 10,000×g for 60 seconds, discarding the flow-through, 500 μl of RNA Wash Buffer II was added and centrifuged at 10,000×g for 60 seconds. Another 500 μl of RNA Wash Buffer II was added and the column assembly was centrifuged at 10,000×g for 60 seconds. The column was centrifuged for 2 minutes at maximum speed to completely dry the HiBind matrix. The column was placed in a clean 1.5 ml microcentrifuge tube and 40-70 μl of molecular biology grade water is added. After sitting for 1 minute, the column was centrifuged for 2 minutes at maximum speed to elute the RNA. The isolated RNA was collected into the collection tube.
RediPlate 96 RiboGreen RNA Quantification Kit (Invitrogen) RediPlate standard curve was prepared by transferring 20 μl reconstituted RNA standard to a RediPlate well reconstituted in 180 μl RediPlate TE buffer. For liver RNAs prepared from 30-100 mg of tissue using a kit similar to the Omega Bio-Tek HP Total RNA Kit and eluted in RNAse-free water in a volume of 50 μl (microliters), 5 μl of the total RNA is diluted in 195 μl of RediPlate TE buffer (1:40 dilution of RNA), mix. […] Alternatively, one can use the FlexStation 3 with Ex 488 nm and Em 525 nm and a Cutoff of 515 nm.

C57/Bl6J DIO mice [2] = assay: Increasing dosages of Compound 72 over 7 days in diet-induced obesity (DIO) mouse model; type: in vivo; details: 30 mg/kg PO QD 7 days
Excerpt: (§1) Male C57/Bl6J DIO mice were obtained from The Jackson Laboratory (Sacramento, Calif.). […] Animals were accustomed to these conditions for at least 2 weeks before experimentation and used at approximately 24 weeks of age.
(§2) Significance was accepted when p<0.05.
Male C57/Bl6J DIO mice were obtained from The Jackson Laboratory (Sacramento, Calif.). […] Animals were accustomed to these conditions for at least 2 weeks before experimentation and used at approximately 26 weeks of age.

C57/Bl6J DIO mice [3] = assay: 7 day dosing in diet-induced obesity (DIO) mouse model of type II diabetes; type: in vivo; details: 30 mg/kg PO QD 7 days (positive control)
Excerpt: as §1, §2

Experimental for db/db mice: Male db/db mice homozygous for Lepr^db (6 weeks of age), were obtained from The Jackson Laboratory (Bar Harbor, Me.). Mice were group housed on a normal light/dark cycle (lights on: 07:00-19:00 h) with ad libitum access to a standard pelleted mouse diet and water. Animals were accustomed to these conditions for 2 weeks before experimentation. […] At 10:30 pm on the evening prior to endpoint measurement, mice were placed into clean cages and given free access to water, but not food for a period of 12 hours before the fasting blood glucose measurement. On the final day of the study, animals were dosed as normal, and then underwent a tail cut injury 2 hours prior to measurement of fasting blood glucose, to allow recovery from any stress the procedure might cause. Fasting blood glucose (FBG) was assessed from the animals at 10:30 am using an AlphaTRAK glucometer (Abbott Laboratories, USA). Following the FBG measurement blood was collected from each mouse, using a tail milking technique, into a capillary tube. Capillary tubes were centrifuged in a hematocrit (BD Triac 0200) and the resultant plasma transferred to an eppendorff. This sample, labelled as t=0 hr, was frozen at −80° C. to allow later measurement of insulin. At 11:30 am each animal was dosed with 0.5 g/kg of glucose, then blood glucose was measured at t=15, 30, 60, 90 and 120 minutes after glucose load. At the end of the OGTT blood was collected for a t=2 hr insulin determination as described above.
Fasting blood glucose values and glucose measurements taken during the OGTT were averaged and graphed (GraphPad Prism, GraphPad Software, La Jolla, Calif.). The area under the curve (AUC) was calculated for each individual animal. Plasma insulin levels were determined using an Ultrasensitive Insulin ELISA (ALPCO, Salem, N.H.). […] Insulin data was also represented in GraphPad Prism format. Statistical analysis was performed using one-way ANOVA followed by the appropriate post-test. Significance was accepted when p<0.05. Data are presented as mean and S.E.M.

## O=C1C2CCC(C2)N1CC(O)Cn1c2ccc(F)cc2c2cc(F)ccc21 (stereo not drawn) [Compound 48, 2-(3-(3,6-difluoro-9H-carbazol-9-yl)-2-hydroxypropyl)-2-azabicyclo[2.2.1]heptan-3-one]
[1]
  Cry2 transcripts in liver: decrease
  liver Per2 expression: suppression

## COC1CCCN(CC(O)Cn2c3ccc(F)cc3c3cc(F)ccc32)C1=O (stereo not drawn) [Compound 57, 1-(3-(3,6-difluoro-9H-carbazol-9-yl)-2-hydroxypropyl)-3-methoxypiperidin-2-one]
[1]
  liver Per2 expression: suppression

## CN(CCOc1ccc(CC2SC(=O)NC2=O)cc1)c1ccccn1 (stereo not drawn) [Rosiglitazone]
C57/Bl6J DIO mice [2]
  fasting blood glucose: 161.1 ± 8.06 mg/dL
db/db mice; 30 mg/kg PO QD 7 days
  HOMA-IR: 50.58+/−3.52 units
  plasma insulin at t=0: 3.05 ± 0.14 ng/mL
  plasma insulin at t=2 hr: 2.28 ± 0.08 ng/mL
db/db mice; 30 mg/kg PO QD 7 days (positive control)
  fasting blood glucose: 280.4 ± 13.66 mg/dL
C57/Bl6J DIO mice [3]
  HOMA-IR: 24.60+/−1.42 units
  fasting blood glucose: 153.9 ± 5.05 mg/dL
  plasma insulin at t=0: 2.70 ± 0.12 ng/mL
  plasma insulin at t=2 hr: 2.30 ± 0.06 ng/mL
